Measured values published in patent EP0120270A2, “Furyloxazolylacetic acid derivative, processes for preparing same and pharmaceutical composition” (Tanabe Seiyaku Co., Ltd., priority 1983, dated 1984).

Key:
male SD rats = assay: Hypolipidemic activity (serum cholesterol and serum triglyceride in rats fed diet containing test compound); type: in vivo; conditions: test compound 50 mg % in diet, ad libitum for one week, group of 5
Experimental: A test compound (50 mg %) was added to a commercial diet, and male SD rats (body weight: 120 - 140 g, a group of 5 rats) were fed with the diet ad libitum for one week. After the experimental period, blood was collected from the tail vein of the rats under ether anesthesia. Then, serum cholesterol and serum triglyceride were measured according to the methods of Zak (Amr. J. Clin, Pathol., Vol. 24, page 1307 (1954)) and Van Handel-Silversmit (J. Lab. & Clin. Med., Vol. 50, page 152 (1957)), respectively. Based on the results obtained above, the decrease (%) in serum cholesterol or triglyceride were calculated by the following formula: [formula]

platelet aggregation = assay: Platelet aggregation-inhibiting activity (collagen-induced aggregation in platelet-rich plasma); type: cell-based, rats; conditions: final concentration: 100 µg/ml, rat PRP, 37°C
Experimental: Blood was collected from the abdominal aorta of male SD rats (body weight: 250 - 300 g) which were anesthetized with ether. Nine volumes of said blood were mixed with one volume of an aqueous 3.8 % (w/v) trisodium citrate solution, and the mixture was centrifuged at 500 x g for 5 minutes to give platelet-rich plasma (hereinafter referred to as "PRP") as the supernatant solution. The bottom layer was further centrifuged at 1000 x g for 10 minutes to give platelet-poor plasma (hereinafter referred to as "PPP") as the supernatant solution. PRP was diluted with PPP so that the blood platelet count was 8 - 10 x 10 /mm . Then, a mixture of 200 µl of said diluted PRP and 25 µl of a test compound solution (final concentration: 100 µg/ml) was introduced into a glass cell of SIENCO aggregometer (Sienco Inc., Morrison, Colo. Model DP-247-D). After the mixture was stirred at 1100 rpm at 37°C for 2 minutes, 25 µl of a collagen solution (prepared by Holmsen's method described in Biochim. Biophys. Acta, Vol. 186, page 254(1969)) was added thereto, and the percentage inhibition of platelet aggregation was calculated in accordance with the following formula from the degree of the platelet aggregation which was estimated by Born's method (Nature, 194, page 927[…]). [formula]

## CCOC(=O)C(C)c1nc(-c2ccc(Cl)cc2)oc1-c1ccco1 (stereo not shown) [Ethyl 2-[2-(4-chlorophenyl)-5-(2-furyl)-4-oxazolyl]-propionate]
Male SD rats
  Decrease (%) in serum choles-terol: 15%
  Decrease (%) in serum trigly-ceride: 22%
Platelet aggregation
  inhibition at 100 µg/mL: ≥ 10%

## CC(C)(C(=O)O)c1nc(-c2ccc(Cl)cc2)oc1-c1ccco1 [2-[2-(4-chlorophenyl)-5-(2-furyl)-4-oxazolyl]-2-methylpropionic acid]
Male SD rats
  Decrease (%) in serum choles-terol: 16%
  Decrease (%) in serum trigly-ceride: 54%

## CCOC(=O)C(C)c1nc(-c2ccc(Cl)cc2)oc1-c1ccoc1 (stereo not shown) [Ethyl 2-[2-(4-chlorophenyl)-5-(3-furyl)-4-oxazolyl]-propionate]
Male SD rats
  Decrease (%) in serum choles-terol: 22%
  Decrease (%) in serum trigly-ceride: 45%
Platelet aggregation
  inhibition at 100 µg/mL: ≥ 10%

## CC(C(=O)O)c1nc(-c2ccc(Cl)cc2)oc1-c1ccco1 (stereo not shown) [2-[2-(4-chlorophenyl)-5-(2-furyl)-4-oxazolyl]-propionic acid]
Male SD rats
  Decrease (%) in serum choles-terol: 14%
  Decrease (%) in serum trigly-ceride: 34%

## CCOC(=O)C(C)(C)Oc1ccc(Cl)cc1 [Clofibrate, 2-(4-chlorophenoxy)-2-methylpropanoic acid ethyl ester, reference compound]
Male SD rats
  Decrease (%) in serum choles-terol: 15%
  Decrease (%) in serum trigly-ceride: 16%
Platelet aggregation
  inhibition at 100 µg/mL: < 10%
